Results as given in ChEMBL document CHEMBL5528002, “Identification of selective 5-LOX and FLAP inhibitors as novel anti-inflammatory agents by ligand-based virtual screening” (Eur J Med Chem, 2024).
Activity calls are given as the source filed them. No cut-off for these calls is given here.

Experiments:
[1] = target: T1, Prostaglandin E synthase (Homo sapiens) (UniProt O14684); test: Inhibition of human mPGES-1 at 10 uM relative to control
T1 sequence (whole entry): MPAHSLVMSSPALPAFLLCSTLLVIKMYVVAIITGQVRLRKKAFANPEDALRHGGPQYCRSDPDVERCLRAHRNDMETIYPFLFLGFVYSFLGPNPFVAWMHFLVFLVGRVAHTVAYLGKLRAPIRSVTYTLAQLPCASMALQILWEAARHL

[2] = target: T2, Polyunsaturated fatty acid 5-lipoxygenase (Homo sapiens) (UniProt P09917); test: (§1) Inhibition of 5-LOX in human Neutrophil assessed as enzyme remaining activity at 10 uM using arachidonic acid as substrate preincubated with compound for 15 mins followed by substrate and A23187 addition measured after 10 mins by RP-HPLC analysis relative to control; assay type: cell-based; conditions: time 25.0 min
T2 sequence (whole entry): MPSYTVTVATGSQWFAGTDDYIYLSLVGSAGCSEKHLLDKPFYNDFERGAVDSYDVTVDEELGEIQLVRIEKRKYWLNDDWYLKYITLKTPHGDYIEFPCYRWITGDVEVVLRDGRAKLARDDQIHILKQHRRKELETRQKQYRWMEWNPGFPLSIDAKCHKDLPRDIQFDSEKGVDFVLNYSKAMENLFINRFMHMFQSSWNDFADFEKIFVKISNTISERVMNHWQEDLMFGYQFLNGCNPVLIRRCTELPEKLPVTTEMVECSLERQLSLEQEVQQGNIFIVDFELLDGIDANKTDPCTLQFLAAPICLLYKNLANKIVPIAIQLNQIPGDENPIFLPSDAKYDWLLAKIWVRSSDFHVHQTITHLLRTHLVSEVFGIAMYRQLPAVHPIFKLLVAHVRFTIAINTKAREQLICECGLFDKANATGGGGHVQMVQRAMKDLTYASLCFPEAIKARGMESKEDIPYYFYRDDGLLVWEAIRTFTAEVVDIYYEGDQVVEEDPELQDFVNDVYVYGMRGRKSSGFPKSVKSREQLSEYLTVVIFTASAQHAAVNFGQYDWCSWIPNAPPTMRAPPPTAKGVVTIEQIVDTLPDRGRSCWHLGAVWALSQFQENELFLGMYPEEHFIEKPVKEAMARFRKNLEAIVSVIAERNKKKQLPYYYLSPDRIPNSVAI

[3] = target: T2, Polyunsaturated fatty acid 5-lipoxygenase (Homo sapiens); test: as §1, with “of human recombinant” for “of”, “5-LOX expressed” for “5-LOX”, “Escherichia coli BL21(DE3)” for “human Neutrophil”, “CaCl2” for “A23187”; conditions: time 25.0 min
[4] = target: T3, Bifunctional epoxide hydrolase 2 (Homo sapiens) (UniProt P34913); test: Inhibition of human sEH assessed as enzyme remaining activity at 10 uM relative to control
T3 sequence (whole entry): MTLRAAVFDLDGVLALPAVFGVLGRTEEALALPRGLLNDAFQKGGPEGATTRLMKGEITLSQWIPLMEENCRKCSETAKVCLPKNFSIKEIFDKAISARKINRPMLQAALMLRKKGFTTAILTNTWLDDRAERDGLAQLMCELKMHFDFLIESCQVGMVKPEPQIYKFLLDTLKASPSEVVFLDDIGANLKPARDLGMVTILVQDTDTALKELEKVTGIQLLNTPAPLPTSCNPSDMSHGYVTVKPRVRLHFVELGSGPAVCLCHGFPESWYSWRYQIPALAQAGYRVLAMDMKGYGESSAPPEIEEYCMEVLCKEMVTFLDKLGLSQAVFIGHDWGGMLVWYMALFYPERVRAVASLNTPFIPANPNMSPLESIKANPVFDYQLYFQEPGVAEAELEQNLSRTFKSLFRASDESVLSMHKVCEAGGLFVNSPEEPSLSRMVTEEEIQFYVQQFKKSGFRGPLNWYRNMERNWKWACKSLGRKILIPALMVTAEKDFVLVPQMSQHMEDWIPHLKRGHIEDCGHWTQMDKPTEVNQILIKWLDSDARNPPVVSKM

[5] = target: T2, Polyunsaturated fatty acid 5-lipoxygenase (Homo sapiens); test: Inhibition of 5-LOX in human Neutrophil at 10 uM preincubated with compound for 15 mins followed by A23187 addition measured after 10 mins by RP-HPLC analysis relative to control; assay type: cell-based; conditions: time 25.0 min
[6] = target: T2, Polyunsaturated fatty acid 5-lipoxygenase (Homo sapiens); test: Inhibition of 5-LOX in human Neutrophil assessed as enzyme remaining activity at 10 uM preincubated with compound for 15 mins followed by A23187 addition measured after 10 mins by RP-HPLC analysis relative to control; assay type: cell-based; conditions: time 25.0 min
[7] = target: T1, Prostaglandin E synthase (Homo sapiens); test: Inhibition of human mPGES-1 assessed as enzyme remaining activity at 10 uM relative to control
[8] = target: T3, Bifunctional epoxide hydrolase 2 (Homo sapiens); test: Inhibition of human sEH at 10 uM relative to control

inhibition [1] | Activity [2] [%] | Activity [3] [%] | Activity [4] [%] | inhibition [5] | Activity [6] [%] | Activity [7] [%] | inhibition [8] [%] | Structure (SMILES)
inactive | 88.2 | 105 | 111 | inactive | 93.1 | 94.2 | > 35 | O=C1Nc2ccccc2/C1=N/NS(=O)(=O)c1ccc(C(=O)O)cc1
inactive | 102 | 107 | 81 | inactive | 94.2 | 96.3 | > 35 | CC(=O)NC(CC(=O)Nc1cccc2c1Cc1ccccc1-2)C(=O)O (stereo not given)
inactive |  |  |  | inactive |  |  | > 35 | N=c1[nH]nc2nc(CC(=O)c3ccc4ccccc4c3)c(=O)[nH]n12
inactive | 102 | 94.4 | 99.9 | inactive | 121 | 83.6 | > 35 | O=C1N=C(Nc2nc3ccccc3[nH]2)OC1c1ccccc1 (stereo not given)
inactive | 93.1 | 75.1 | 92.9 | inactive | 80.2 | 80.5 | > 35 | NNC(=O)CCc1ccc2ccc3ccccc3c2c1
> 50% | 91.8 | 97.2 | 102 | inactive | 72.8 | 47.6 | > 35 | CC(=O)c1ccc(NCN2C(=O)c3ccccc3C2=O)cc1
inactive | 95.3 | 96.5 | 112 | inactive | 90.6 | 86.3 | > 35 | NS(=O)(=O)c1ccc(NCc2cnc3ccccc3c2)cc1
inactive | 103 | 110 | 87.4 | inactive | 105 | 86.5 | > 35 | O=C(O)c1ccccc1C(=O)OC1CCc2ccccc2C1 (stereo not given)
< 40% | 69.8 | 14 | 90.6 | inactive | 106 | 57.9 | > 35 | Cc1ccc(Nc2nnc(-c3ccc4c(c3)OCO4)o2)c(C)c1
inactive | 98.3 | 98.5 | 92.7 | inactive | 113 | 90.9 | > 35 | Cn1c(=O)c2nc(CCCc3nc4ccccc4[nH]3)[nH]c2n(C)c1=O
inactive | 87.6 | 66.9 | 72.5 | inactive | 89.1 | 75.9 | > 35 | O=C(O)c1cnc2cc(OCCc3ccc(F)cc3)ccc2c1O
inactive |  |  | 147 | inactive |  | 98.3 | > 35 | O=C(O)c1cc(O)c2cc(Cc3ccccc3)ccc2n1
> 50% | 80.6 | 110 | 101 | inactive | 105 | 27.4 | > 35 | O=C1C(=O)C(CCc2ccccc2)C(=O)/C1=C/c1ccccc1 (stereo not given)
inactive | 99.6 | 99.8 |  | inactive | 111 |  | > 35 | O=C(c1ccc2ccccc2n1)C(O)c1ccc2ccccc2n1 (stereo not given)
> 50% | 68 | 58.3 | 92.9 | inactive | 85.5 | 40.9 | > 35 | N=C(N)/N=C(/C=C/c1ccccc1)CC1OC(=O)c2ccccc21 (stereo not given)
inactive | 79.5 | 91.1 | 75.7 | inactive | 87.9 | 88.2 | > 35 | Cc1cc(=O)oc(C)c1C(=O)Oc1ccc2ccccc2c1
inactive | 99.2 | 90.4 | 41.5 | inactive | 100 | 92.5 | 58 | O=C1c2ccccc2C(=O)N1CCc1nc(-c2ccccc2)c[nH]1
inactive | 106 | 115 | 196 | inactive | 104 | 93.4 | > 35 | CC(=O)c1cccc(NC(=O)Oc2ccc3c(C)cc(=O)oc3c2)c1
< 40% | 94.9 | 105 | 79.7 | inactive | 81.6 | 59 | > 35 | CC(=O)c1cccc2cc(CC(=O)c3ccccc3)c(=O)oc12
inactive | 67.1 | 94.4 | 128 | inactive | 112 | 83.1 | > 35 | O=C1C/C(=C/c2cccc(OCc3ccccc3)c2)C(=O)N1
inactive | 80.1 | 96.2 | 91.6 | inactive | 82.3 | 93.9 | > 35 | N=c1c2c(ncn1Cc1ccccc1)CCN(Cc1ccccc1)C2
< 40% | 60.1 | 67.6 | 108 | inactive | 47.6 | 52.6 | > 35 | O=C(/C=C/c1ccccc1)CCc1c(O)c2ccccc2oc1=O
inactive | 77.9 | 103 | 132 | inactive | 152 | 81.1 | > 35 | O=C1C(C(O)c2ccccc2)CCCC1C(O)c1ccccc1 (stereo not given)
inactive |  |  | 88.2 | inactive |  | 98.2 | > 35 | O=C(/C=C/c1ccccc1)NCCC1(O)C(=O)Nc2ccccc21 (stereo not given)
inactive | 101 | 91.7 | 86.2 | inactive | 95.6 | 89.6 | > 35 | CC1CCc2c(c(CC3CC(=O)NC(=O)C3)nn2-c2ccccc2)C1 (stereo not given)
inactive |  |  | 121 | inactive |  | 84.3 | > 35 | Cc1ccn(C(=O)C2=Cc3ccccc3OC2)c(=N)c1
inactive | 92.4 | 96.4 | 91.4 | inactive | 97 | 88.1 | > 35 | O=C(NCc1ccco1)Nc1cccc(-c2ccccc2)c1
